In patent publication US20230390250A1, “MODULATION OF GLUCAGON-LIKE PEPTIDE 1 AND USES THEREOF” (priority 2020, published 2023):
Entries after “also recorded” stand apart in the source; their conditions may differ. Read-outs that look alike come from different tables or passages of the source.

Legend:
Dpp4 gene expression = Dpp4 gene expression in LPA-treated GLUTag cells (real time PCR); format: cell-based, mouse; details: 2.5 uM 20:4-LPA, 2 hours and up to 2 days, normalised to Gapdh
GLUTag cells = assay: GLP-1 secretion from cultured GLUTag cells treated with LPA and/or LPAR antagonist; format: cell-based, mouse; details: for rescue of LPA-inhibited GLP-1 secretion by LPAR antagonist: 10 μM antagonist plus 2.5 μM LPA
Protocol: We have grown GLUTag cells in culture to test effects of various LPA species and the LPAR 1/2/3 inhibitor Ki-16425. GLUTag cells are a well characterized L-cell line derived from a mouse intestinal tumour, which have been widely used to study the regulation of GLP-1. Briefly, GLUTag cells were grown until 80-90% confluent. Complete medium, containing fetal bovine serum, was replaced with medium containing charcoal[…] dextran treated serum, which removes lipids and hormones that could interfere with testing. […] This indicates a direct inhibitory effect of LPA at physiologically relevant levels on GLP-1 secretion by L-cells, and the ability of a commercially available LPAR antagonist to prevent this.
Experimental Protocol. Briefly, GLUTag cells were grown until 70-80% confluent. Complete medium (low glucose DMEM), containing fetal bovine serum, was replaced with medium containing charcoal-dextran treated serum, which removes lipids and hormones that could interfere with testing. Cells were then treated with medium containing either DMSO as vehicle control (0.1% v/v), 2.5 μM LPA, 10 μM LPAR antagonist, or a combination of the LPA species and inhibitors. For cells treated with both LPA plus LPAR inhibitor: cells were pre-treated with LPA for 30 minutes and then 10 uM LPAR inhibitor was added to the respective wells for a further 2 hours. For cells treated with LPA only, or vehicle only, the total treatment time was 2.5 hours. For cells treated with antagonist only, the treatment time was 2 hours.

LPAR3 = target: T1, LPAR3 (Homo sapiens, UniProt Q9UBY5); details: cited from earlier work
T1 sequence (Q9UBY5 1-353): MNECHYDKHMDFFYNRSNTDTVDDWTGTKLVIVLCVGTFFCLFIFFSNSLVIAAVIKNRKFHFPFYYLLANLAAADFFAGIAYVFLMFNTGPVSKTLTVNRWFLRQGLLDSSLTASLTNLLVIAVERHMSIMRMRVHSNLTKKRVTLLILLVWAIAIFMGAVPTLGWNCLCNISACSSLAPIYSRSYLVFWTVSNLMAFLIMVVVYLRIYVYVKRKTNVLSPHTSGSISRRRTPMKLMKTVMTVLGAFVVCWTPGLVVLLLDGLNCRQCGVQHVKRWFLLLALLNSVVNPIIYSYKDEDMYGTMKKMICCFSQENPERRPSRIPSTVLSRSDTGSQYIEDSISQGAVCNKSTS

LPAR1 [1] = target: T2, LPAR1 (Homo sapiens, UniProt Q92633); details: cited from earlier work
Target sequence in this assay (Q92633 whole entry, species assumed): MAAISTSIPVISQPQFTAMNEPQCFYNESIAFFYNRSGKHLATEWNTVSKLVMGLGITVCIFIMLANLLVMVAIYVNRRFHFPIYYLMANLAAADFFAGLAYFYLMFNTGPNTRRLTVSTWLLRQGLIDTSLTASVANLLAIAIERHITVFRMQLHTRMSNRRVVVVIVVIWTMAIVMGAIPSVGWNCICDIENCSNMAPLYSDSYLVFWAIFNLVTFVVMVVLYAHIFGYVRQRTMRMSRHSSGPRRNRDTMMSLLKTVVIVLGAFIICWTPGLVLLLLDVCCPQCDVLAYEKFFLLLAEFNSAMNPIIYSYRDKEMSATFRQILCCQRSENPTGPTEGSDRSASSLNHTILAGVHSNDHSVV

recombinant mouse LPAR1 = target: T3, recombinant mouse LPAR1 (Mus musculus, UniProt P61793); details: CHO cell membranes; read-out: IC50, inhibition of GTP-gamma-s binding, mouse LPAR1; cited from earlier work
T3 construct: expressed in transfected cells; host or cells: CHO cell membranes

GLP-1 [2] = assay: Circulating GLP-1 in mice injected with LPA, with or without LPAR antagonist pre-treatment; format: in vivo; details: for rescue of the fall in blood GLP-1 levels caused by LPA: serum at 30 min (Examples 6, 8); for blood GLP-1 with antagonist alone versus vehicles: no LPA; for prevention of LPA-induced decrease in plasma GLP-1: 5 mg/kg i.p. 10 min before 50 mg/kg 1-oleoyl-2-hydroxy-LPA, n=3 (Example 3, FIG. 4)
Protocol: We injected mice i.p. with vehicle (10% DMSO in isotonic saline) or 50 mg/kg of 1-oleoyl-2-hydroxy-LPA. Half of the mice injected with LPA were pre-injected with 5 mg/kg Ki-16425 10 minutes prior to receiving LPA. Thirty minutes later, samples of blood were taken by cardiac puncture, and circulating active GLP-1 levels in plasma were analysed by enzyme linked immunosorbent assay.
(§1) The experimental protocol was as follows: • 1. Mice were administered an LPAR antagonist drug, either by oral gavage (for BMS986020, SARI 00842, AM966, AM095, or H2L51863030), or by i.p. injection (for Ki-16425, and LPA2-antagonistl) at the doses indicated in the table below. • 2. Control mice were administered only the vehicle (a 10% DMSO solution) given via the same route as the comparison drug was administered. • 3. Ten minutes later, mice were injected i.p. either with isotonic saline, or with 50 mg/kg LPA. • 4. Thirty minutes later, mice were euthanized by cervical dyslocation, and blood was collected from the heart for preparation of serum that was stored at −80C until it was analyzed for total GLP-1 concentration by ELISA assay using a GLP-1 enzyme immunoassay kit.

LPAR5 = target: T4, LPAR5 (Homo sapiens, UniProt Q9H1C0); details: cited from earlier work
T4 construct: host or cells: CHO cells

LPAR4 = target: T5, LPAR4 (Homo sapiens, UniProt Q99677); details: cited from earlier work
T5 construct: host or cells: CHO cells

LPAR2 = LPAR2 (Homo sapiens, UniProt Q9HBW0); details: cited from earlier work
LPAR1 [3] = target: T2, LPAR1; set-up: expressed in transfected cells; host or cells: CHO cell membranes; details: CHO cell membranes; read-out: IC50, inhibition of GTP-gamma-s binding, human LPAR1; cited from earlier work
Target sequence in this assay (Q92633 whole entry): as the sequence (Q92633 whole entry, species assumed) above

DPP4 [4] = assay: DPP4 activity in GLUTag cells (fluorometric kit ab204722); format: cell-based, mouse; details: for effect of 18:1-LPA combined with LPAR antagonist on DPP4 activity in GLUTag cells: 2.5 uM 18:1-LPA 30 minutes, then 10 uM antagonist 2 hours; for effect of LPAR antagonist alone on DPP4 activity in GLUTag cells: 10 uM antagonist, 2 hours
Protocol: Briefly, GLUTag cells were grown to produce the recommended quantity needed for the assay according to the manufacturer's protocol (ab204722 Dipeptidyl peptidase IV Activity Assay Kit (Fluorometric)), and then the wells were treated in media containing charcoal-stripped FBS (10%), with either nothing (no treatment control), or vehicle control (0.05% DMSO), or 2.5 uM 18:1-LPA for 30 minutes, and then the inhibitors (as indicated in the graph of FIG. 17) were added to the vehicle wells and the 2.5 uM 18:1-LPA wells at 10 uM concentrations, as indicated on the graph (FIG. 17), for an additional 2 hours. Cells were then harvested according to the manufacturer's protocol, and lysed using reagents from the kit. Charcoal-stripped FBS was used to remove lipids, including LPA, from serum. Experiments were also carried out wherein the FBS was not stripped with charcoal, and the results were not different.
According to the manufacturer, dipeptidyl peptidase IV (DPP4) Activity Assay Kit (Fluorometric) (ab204722) is an assay where DPP4 cleaves a substrate to release a quenched fluorescent group, AMC (7-Amino-4-Methyl Coumarin), which can be easily detected at Ex/Em=360/460 nm. This assay is rapid, simple, sensitive, and reliable, as well as, suitable for high throughput activity screening of DPP4. This kit detects DPP4 activity as low as 3 ρU per well.

GLP-1 [5] = assay: Blood GLP-1 in RT-SAKO mice (elevated endogenous LPA) treated with Ki-16425; format: in vivo; details: 30 minutes after injection
Source text: Our laboratory has created a new genetic mouse model to study the isolated effects of obesity on kidney health. This model was not created to test LPA metabolism or to study GLP-1 regulation, but we have made important discoveries on these topics. We have made mice that lack the enzyme adipose triglyceride lipase (ATGL) in renal tubule cells, and have named these mice renal tubule-specific adipose triglyceride lipase knockout (or RT-SAKO) mice. These mice develop fatty kidneys, and as a side effect of changes in kidney cell metabolism, their kidneys make more LPA. As a result, RT-SAKO mice develop elevations in blood lysophosphatidic acid levels by 16-18 weeks of age (FIG. 5, left panel). They also have low circulating levels of GLP-1 (FIG. 5, right panel).

[6] = Glucose intolerance and insulin secretion in fatty-kidney (RT-SAKO) mice; format: in vivo
insulin secretion = details: prior study, Rancoule et al. 2013, cited from earlier work
DPP4 [7] = assay: DPP4 activity in serum of C57BI/6J mice; format: in vivo
Protocol: Mice were injected with 5 mg/kg Ki16425 or control (10% DMSO in isotonic saline), then injected 10 mins later with 50 mg/kg 1-18:1-LPA or saline (vehicle control), then euthanized 30 minutes later for serum collection and analysis.
as §1, with “(for” for “(for BMS986020,”, “00842” for “00842, AM966, AM095,”, “AM966),” for “H2L51863030),”, “Ki-16425)” for “Ki-16425, and LPA2-antagonistl)”, “18:1-LPA.” for “LPA.”

LPAR2, sequence (Q9HBW0 whole entry, species assumed): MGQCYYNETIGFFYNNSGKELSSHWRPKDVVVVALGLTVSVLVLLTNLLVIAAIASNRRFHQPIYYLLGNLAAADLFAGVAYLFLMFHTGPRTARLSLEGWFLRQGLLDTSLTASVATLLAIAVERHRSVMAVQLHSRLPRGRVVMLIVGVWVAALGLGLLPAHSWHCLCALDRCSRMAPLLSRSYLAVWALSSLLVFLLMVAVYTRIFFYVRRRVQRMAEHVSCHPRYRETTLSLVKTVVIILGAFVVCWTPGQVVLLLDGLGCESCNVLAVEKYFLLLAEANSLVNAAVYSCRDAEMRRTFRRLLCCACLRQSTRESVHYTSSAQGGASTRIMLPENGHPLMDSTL
T4 sequence (Q9H1C0 whole entry, species assumed): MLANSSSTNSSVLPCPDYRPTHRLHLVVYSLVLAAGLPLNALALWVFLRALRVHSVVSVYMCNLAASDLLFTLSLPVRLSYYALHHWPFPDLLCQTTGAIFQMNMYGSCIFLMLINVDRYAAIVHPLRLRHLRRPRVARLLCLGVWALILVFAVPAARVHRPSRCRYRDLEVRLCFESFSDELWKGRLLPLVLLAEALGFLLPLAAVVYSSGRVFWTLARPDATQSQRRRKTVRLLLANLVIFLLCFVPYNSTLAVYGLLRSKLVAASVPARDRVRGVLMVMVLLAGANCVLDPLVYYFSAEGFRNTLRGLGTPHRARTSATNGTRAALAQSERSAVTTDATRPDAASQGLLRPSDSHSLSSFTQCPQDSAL
T5 sequence (Q99677 whole entry, species assumed): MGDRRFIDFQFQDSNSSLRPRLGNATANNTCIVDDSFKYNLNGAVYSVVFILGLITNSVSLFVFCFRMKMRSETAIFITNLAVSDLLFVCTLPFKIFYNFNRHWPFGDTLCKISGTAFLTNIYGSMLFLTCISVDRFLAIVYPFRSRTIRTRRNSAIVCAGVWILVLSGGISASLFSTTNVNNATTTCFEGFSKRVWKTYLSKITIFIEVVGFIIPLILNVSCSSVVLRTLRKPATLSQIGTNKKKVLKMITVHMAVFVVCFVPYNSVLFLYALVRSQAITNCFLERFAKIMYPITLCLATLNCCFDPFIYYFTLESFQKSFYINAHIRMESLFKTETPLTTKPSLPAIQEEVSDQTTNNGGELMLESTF
T3 sequence (P61793 whole entry): as the sequence (Q92633 whole entry, species assumed) above, with I4A, I8S, P22Q, H40Y, I61V, E193D, N194H, I269V, S331N, T335N counted along it

For `CCCCC/C=C\C/C=C\C/C=C\C/C=C\CCCC(=O)OCC(O)COP(=O)(O)O` (stereo not drawn) [20:4-LPA, 1-arachidonoyl-2-hydroxy-LPA], the “change in Dpp4 gene expression” value (Dpp4 gene expression) was “did not significantly change”, the “fold decrease in GLP-1 secretion / GLP-1 levels in media caused by LPA” value (GLUTag cells; 2.5 μM LPA species) was ~5 fold and the “decrease in GLP-1 secretion / level caused by LPA (fraction)” value (GLUTag cells; 2.5 μM LPA, 2-2.5 h) was “over 2/3”.
In the case of `Cc1noc(-c2ccc(-c3ccc(CC(=O)O)cc3)cc2)c1NC(=O)O[C@H](C)c1ccccc1` [AM095], the “level at which LPAR3 is antagonized” value (LPAR3) is given as “low micromolar levels”, the IC50 (LPAR3; read-out: IC50 for LPAR3) is given as ≥ 10 µM and the IC50 (LPAR1 [1]; read-out: IC50 for LPAR1) is given as ~25 nM. For the same molecule, the “fold greater affinity for LPAR1 than LPAR2-5” value (LPAR1 [1]; selectivity) was > 400 fold, the IC50 (recombinant mouse LPAR1) was 730 nM and the “rescue of the fall in blood GLP-1 levels caused by LPA” value (GLP-1 [2]; antagonist 30 mg/kg by gavage 10 min before 50 mg/kg 18:1-LPA i.p.) was “completely abrogated; also recorded: Complete rescues”. The “blood GLP-1 with antagonist alone versus vehicles” value (GLP-1 [2]; antagonist 30 mg/kg by gavage) was “not significantly different from mice treated only with the vehicles”, the IC50 (LPAR5) was ≥ 10 µM and the “effect of LPAR antagonist alone on GLP-1 levels” value (GLUTag cells; 10 μM antagonist alone, 2 h) was “no significant effect”. The “rescue of LPA-inhibited GLP-1 secretion by LPAR antagonist” value (“rescue of LPA-inhibited GLP-1 secretion” for short) (GLUTag cells) was “complete rescue”, the IC50 (LPAR4) was ≥ 10 µM and the IC50 (LPAR2) was ≥ 10 µM. The IC50 (LPAR1 [3]) was 980 nM, the “effect of 18:1-LPA combined with LPAR antagonist on DPP4 activity in GLUTag cells” value (DPP4 [4]) was “did not significantly affect” and the “effect of LPAR antagonist alone on DPP4 activity in GLUTag cells” value (DPP4 [4]) was “did not significantly affect”.
In the case of `Cc1noc(-c2ccc(CSCCC(=O)O)cc2)c1NC(=O)OC(C)c1ccccc1Cl` (stereo not drawn) [Ki16425], the “restoration of blood GLP-1 levels in RT-SAKO mice” value (GLP-1 [5]) is given as “restores GLP-1 levels; also recorded: come back up to close to normal”, the “glucose intolerance and impaired insulin secretion” value [6] is given as “rescues” and the Ki (LPAR3) is given as 930 nM. For the same molecule, the “level at which LPAR3 is antagonized” value (LPAR3) was “low micromolar levels”, the Ki (LPAR1 [1]) was 340 nM and the “prevention of LPA-induced decrease in plasma GLP-1” value (GLP-1 [2]) was “significantly abrogates”. For the same molecule, the “prevention of LPA-induced decrease in plasma GLP-1” value (GLP-1 [2]; listed as Ki-16425) was “partially restored; also recorded: partially prevented; also recorded: significantly prevented”, the “rescue of the fall in blood GLP-1 levels caused by LPA” value (GLP-1 [2]; antagonist 5 mg/kg i.p. 10 min before 50 mg/kg 18:1-LPA i.p.) was “completely abrogated; also recorded: Complete rescues; also recorded: restored to normal levels” and the “blood GLP-1 with antagonist alone versus vehicles” value (GLP-1 [2]; antagonist 5 mg/kg i.p.) was “indistinguishable from mice treated only with the vehicles”. The beta-islet cell number (insulin secretion; mice on a high-fat diet) was “increased”, the “prevention of LPA-impaired insulin secretion” value (insulin secretion) was “prevented” and the “effect of antagonist on DPP4 activity in mouse serum” value (DPP4 [7]; 5 mg/kg i.p.) was “did not significantly affect; also recorded: lack of effect; also recorded: not significantly affected”. The “effect of 18:1-LPA combined with antagonist on DPP4 activity in mouse serum” value (DPP4 [7]; antagonist 5 mg/kg i.p. then 50 mg/kg 18:1-LPA) was “did not affect”, the “rescue of LPA-inhibited GLP-1 secretion” value (GLUTag cells) was “larger effect than the others; also recorded: prevented that decrease” and the “rescue of LPA-inhibited GLP-1 secretion” value (GLUTag cells; listed as Ki-16425) was “completely prevents this decrease; also recorded: restored”. The Ki (LPAR2) was 6.5 µM, the “effect of 18:1-LPA combined with LPAR antagonist on DPP4 activity in GLUTag cells” value (DPP4 [4]) was “did not significantly affect” and the “effect of LPAR antagonist alone on DPP4 activity in GLUTag cells” value (DPP4 [4]) was “did not significantly affect”.
